Reference: patent US6518012B1, “Method for regulating the expression of MHC antigens and CD40 by inhibitors of histone deacetylation” (Health Research, Inc., priority 1999, dated 2003)

Legend:
cell lines employed = experiment: Toxicity of deacetylase inhibitors (lift-off, trypan-blue dye exclusion, laddering, PI/annexin-V flow cytometry); assay type: cell-based; details: 1 mM Na-butyrate for 12-48 hr
Procedure: Two representative DAIs, TSA and NaBu were used for this illustration. […] In some experiments, 100 U/ml γ-IFN was added with and without the deacetylase inhibitor.

HLA-DRα mRNA [1] = experiment: HLA-DRα mRNA by standard PCR and real-time PCR in human cell lines JAR and SK-N-MC; assay type: cell-based
[2] = system: class II transactivator (CIITA) mRNA; experiment: CIITA mRNA by standard PCR and real-time PCR in human cell lines JAR and SK-N-MC; assay type: cell-based
Procedure: (§1) To determine the effect of DAIs on HLA-DRα mRNA, cytoplasmic RNA was isolated from untreated and treated human trophoblast cell line JAR using standard techniques (RNeasy System from Qiagen). Standard PCR was performed using primers for DR and CIITA (Murphy et al., 1998, Reprod Dev., Chin et al., 1994, Immunity 1:687-697). Other primers used included human and mouse GAPDH (Clontech) and forward primer 5′-[…]-3′ (SEQ ID NO:25) and reverse primer 5′-[…]-3′ (SEQ ID NO:26) for mouse CIITA. PCR products were amplified with GOLD Taq for 10 min at 95° C., then 95° C. for 30 sec, 60° C. for 60 sec (25-45 cycles), then an extension at 60° C. for 10 min.
(§2) Oligonucleotide primers and TaqMan 5′-6-FAM and 3′-TAMRA-labeled probes were synthesized in the RPCI Biopolymer Facility. Primer and probe sequences are listed under Sequence Listing and also in FIG. 9. Sequences were designed using standard software (PrimerExpress software, PE Biosystems) except for human GAPDH.
(§3) Realtime PCR reactions contained TaqMan Universal PCR Master Mix (PE Biosystems), primers at 300 nM, and probes at optimal concentrations (150-225 nM depending on gene). Reactions were carried out on an ABI PRISM 7700 Sequence Detection System (PE Biosystems). Cycling conditions were 50° C. for 2 min, 95° C. for 10 min, then 60 cycles of 95° C. for 15 sec, 60° C. for 1 min. PCR samples were run in triplicate. The detection system and quantitative PCR was carried out as described by Williamson et al. (1995, Genet Res. 65:83-93). The threshold cycle number CT corresponded to the cycle number, at which the fluorescent emission reaches 10 standard deviations above the mean fluorescent emission, measured during the early ‘baseline’ cycles of the PCR. The CT values for triplicates were averaged and normalized to GAPDH levels. […] Assuming reverse transcription efficiencies were approximately the same for each sample, relative amounts of mRNA using the comparative CT method. Fold changes in mRNA levels were calculated as 2^x where x=the difference between normalized CT values of the control and experimental samples.
[…] RNA was isolated and real time quantitative RT-PCR was carried out. The fold increase in mRNA over the control was calculated.

HLA-DRα mRNA [3] = experiment: HLA-DRα mRNA by standard PCR and real-time PCR in human cell lines JAR and SK-N-MC; assay type: cell-based; details: JAR
Procedure: as §1, §2, §3
To evaluate the effects of DAIs on human cells, the human trophoblast cell line was treated with 100 nM Trichostatin A (TSA), IFNγ (100 U/ml) or a combination of TSA and IFNγ for 12 hours. RNA was isolated and real time quantitative RT-PCR was carried out. The fold increase in mRNA over the control was calculated.

[4] = system: MHC class II protein on the cell surface; experiment: Cell surface MHC class II protein by flow cytometry on Colon 26 and J558; assay type: cell-based, mouse; details: J558; G2/M arrest experiment with nocodazole; data not shown
Procedure: To determine the effect of TSA on cell surface protein expression, the J558 cell line was subjected to flow cytometric analyses as follows. Flow cytometric analyses were conducted by standard methods using cells fixed with 1.0% paraformaldehyde and analyzed on the FACScan (Becton Dickinson). Cell cycle analyses were carried out by flow cytometry with PI staining of genomic DNA. Cells were fixed and permeablized in methanol, treated with RNaseA and analyzed for DNA content by determination of FL3-area on the FACScan. The FL3-area data were analyzed with the ModFit software for determination of the percent cells in each phase of the cell cycle. In some cases, fluorescein isothiocyanate (FITC)-conjugated antibody staining was conducted prior to PI treatment and surface staining was analyzed as a function of cell cycle phase. Apoptosis was analyzed by staining with annexin-V directly conjugated with either FITC or RPE and by sub-G0 analysis of DNA staining. Expression levels without treatment are shown as shaded peaks, IFNγ treated cell expression is plotted by a thin line while the level of expression on TSA treated cells is represented by a heavy line. Isotype controls were analyzed and, in each case, fell on or below the levels shown for control cells. MC and Colon 26 treatments are shown for 50 nM TSA for 48 hours, while J558 treatment is for 25 nM TSA for 24 hours. All IFNγ treatments were 100 U/ml for the same length of time as the corresponding TSA treatment. The percent of cells staining positive for MHC class II or CD40 expression is indicated below each histogram. Since all cells were positive for MHC class I expression, the number under the histogram represents -fold change of expression calculated from the mean channel-shift after treatment relative to untreated cells. Data are representative of at least three independent experiments. Of the 13 markers analyzed on J558 cells, only class I, II and CD40 were enhanced, while levels of several non-expressed antigens were not elicited (including CD25, B7 integrin, CD40L, H2K^k and IA^k) while other markers, which were expressed, were not altered (including CD44, CD54, CD80, CD86 and CD119) by TSA treatment. […] The highest expression (21-fold induction) was achieved on J558 cells after 24 hr by 25 nM TSA. […] The separation of control and IFNγ curves in the CD40, J558 experiment depicted in FIG. 8 represents a mean channel fluorescence difference of only 1.3 and was not seen on independent replicates of the experiment.
TSA has been described as a cell cycle inhibitor that induces both G1 and especially G2/M blocks (Bestor, 1998, Nature, 393:311-312; Yoshida et al., 1988, Exp. Cell Res. 177:122-131). MHC class II, but not class I, has been reported (Inokoshi et al., 1999, Biochem. Biophys. Res. Commun., 256:372-376; Monroe et al., 1983, J. Immunol., 130:626-631) to be regulated differentially during the cell cycle. Therefore the cell cycle of the cell lines used in the present invention was analyzed by DNA staining and flow cytometry with each of the treatment conditions under study. […] Two additional methods were used to analyze cell cycle effects on MHC expression. Since it has been reported that TSA arrests cell cycle mainly in G2/M, and class II has been reported to accumulate in G2/M (Monroe et al., 1983, supra), experiments were designed to essentially arrest 100% of J558 cells in G2/M with nocodazole. […] From the above experiments, it can be concluded that DAIs have specific effects on MHC class I and II, and CD40 gene expression, which is likely not a result of its action on the cell cycle.

IAα mRNA = experiment: MHC class II (IAα) mRNA by RT-PCR and real-time PCR in mouse tumor models; assay type: cell-based
Procedure: as §1
(§4) In order to obtain more quantitative information on fold changes in DR and CIITA after treatment with the deacetylase inhibitors, a real time fluorescence technique capable of quantitating low copy numbers of transcripts was carried out as follows. Oligonucleotide primers and TaqMan 5′-6-FAM and 3′-TAMRA-labeled probes were synthesized in the RPCI Biopolymer Facility. Primer and probe sequences are listed under Sequence Listing and also in FIG. 9. Sequences were designed using standard software (PrimerExpress software, PE Biosystems) except for human GAPDH.
(§5) Realtime PCR reactions contained TaqMan Universal PCR Master Mix (PE Biosystems), primers at 300 nM, and probes at optimal concentrations (150-225 nM depending on gene). Reactions were carried out on an ABI PRISM 7700 Sequence Detection System (PE Biosystems). Cycling conditions were 50° C. for 2 min, 95° C. for 10 min, then 60 cycles of 95° C. for 15 sec, 60° C. for 1 min. PCR samples were run in triplicate. The detection system and quantitative PCR was carried out as described by Williamson et al. (1995, Genet Res. 65:83-93). The threshold cycle number CT corresponded to the cycle number, at which the fluorescent emission reaches 10 standard deviations above the mean fluorescent emission, measured during the early ‘baseline’ cycles of the PCR. The CT values for triplicates were averaged and normalized to GAPDH levels. […] In such cases, in order to calculate a minimum fold change for other samples in the same group, the CT value was arbitrarily set at 40. […] Assuming reverse transcription efficiencies were approximately the same for each sample, relative amounts of mRNA using the comparative CT method. Fold changes in mRNA levels were calculated as 2^x where x=the difference between normalized CT values of the control and experimental samples.
(§6) To determine if the effect of DAIs on MHC class II was manifested in other tumors and in different species, the effect of TSA was tested on four commonly used mouse tumor models: the SaI fibrosarcoma, the Colon 26 adenocarcinoma, the J558 plasmacytoma and the P815 mastocytoma. TSA induced class II in all four mouse tumors examined, while the effects of IFNγ were variable (FIG. 4). Data presented for each cell line represents optimal incubation time and concentration of TSA and is compared with 100 U/ml of IFNγ at the same time point. Numbers over bars represents fold changes. […] Colon 26 and J558 that differed strikingly in their reactivity to IFNγ were selected for further evaluation. RT-PCR and real time PCR was used to examine induction of CIITA and IAα by TSA and IFNγ. A20, a constitutively positive B cell line was used as a positive control. The results are shown in FIGS. 5A-D. The numbers over bars represent fold changes. […] Since the classical IFNγ inducible genes IRF-1 and GBP as well as MHC class I mRNA were not induced by IFNγ in J558 (data not shown), this cell line may have a signaling defect in the IFNγ pathway. Unexpectedly however, and unlike either the MC or Colon 26 cells, TSA induced both CIITA (102-fold) and Iα (537-fold) in J558 as shown in FIGS. 5B and 5D.

CIITA mRNA = CIITA mRNA by RT-PCR and real-time PCR in mouse tumor cells Colon 26 and J558; assay type: cell-based
Procedure: as §1, §4, §5, §6

## CCCC(=O)[O-].[Na+] [sodium butyrate]
Cell lines employed
  toxicity: non toxic
HLA-DRα mRNA [1]; MC cells, real time PCR, 100 nM TSA 24 hr, NaBu 1 mM 48 hr, IFNγ any concentration or time point
  fold increase in expression of DR: 88 fold
HLA-DRα mRNA [1]; SK-N-MC, RT-PCR, 100 nM TSA 24 hours, 1 mM NaBu 48 hours, IFNγ
  levels of mRNA for HLA-DRα (DR): substantial increase
[2]; JAR, real time PCR, sodium butyrate (FIG. 2)
  increase in class II transactivator (CIITA): no increase
[2]; JAR, standard PCR at 35 cycles, 100 nM or 250 nM TSA or 1 mM sodium butyrate
  CIITA transcription: undetectable
[2]; MC cells, real time PCR up to 60 cycles, 100 nM TSA 24 hr, NaBu 1 mM 48 hr, IFNγ
  CIITA mRNA fold change: no activation
[2]; SK-N-MC, routine RT-PCR at 35 cycles, 100 nM TSA 24 hours, 1 mM NaBu 48 hours, IFNγ
  CIITA transcription: undetectable
HLA-DRα mRNA [3]; real time quantitative RT-PCR, 100 nM TSA, IFNγ 100 U/ml or combination for 12 hours, sodium butyrate (FIG. 2)
  fold increase in HLA-DRα (MHC class II) mRNA over the control: 12 fold
HLA-DRα mRNA [3]; standard PCR, 100 nM or 250 nM TSA or 1 mM sodium butyrate
  levels of mRNA for DR: substantial increase

## COC(=O)Nc1nc2ccc(C(=O)c3cccs3)cc2[nH]1 [Nocodazole, nocodazole]
[4]
  MHC class II positive cells: 23%

B1: IFNγ: gamma-interferon, cytokine used as comparator at 100 U/ml (protein, UniProt P01579 24-161, looked up)
Interferon gamma: QDPYVKEAENLKKYFNAGHSDVADNGTLFLGILKNWKEESDRKIMQSQIVSFYFKLFKNFKDDQSIQKSVETIKEDMNVKFFNSNKKKRDDFEKLTNYSVTDLNVQRKAIHELIQVMAELSPAAKTGKRKRSQMLFRG
IAα mRNA
  Iα (class II) fold induction: did not activate
CIITA mRNA
  CIITA fold induction: did not activate
